Target: STAT3 (Homo sapiens, UniProt P40763)
Experiment: label-free microscale thermophoresis
Format: binding

Sequence of STAT3 (P40763 2-770): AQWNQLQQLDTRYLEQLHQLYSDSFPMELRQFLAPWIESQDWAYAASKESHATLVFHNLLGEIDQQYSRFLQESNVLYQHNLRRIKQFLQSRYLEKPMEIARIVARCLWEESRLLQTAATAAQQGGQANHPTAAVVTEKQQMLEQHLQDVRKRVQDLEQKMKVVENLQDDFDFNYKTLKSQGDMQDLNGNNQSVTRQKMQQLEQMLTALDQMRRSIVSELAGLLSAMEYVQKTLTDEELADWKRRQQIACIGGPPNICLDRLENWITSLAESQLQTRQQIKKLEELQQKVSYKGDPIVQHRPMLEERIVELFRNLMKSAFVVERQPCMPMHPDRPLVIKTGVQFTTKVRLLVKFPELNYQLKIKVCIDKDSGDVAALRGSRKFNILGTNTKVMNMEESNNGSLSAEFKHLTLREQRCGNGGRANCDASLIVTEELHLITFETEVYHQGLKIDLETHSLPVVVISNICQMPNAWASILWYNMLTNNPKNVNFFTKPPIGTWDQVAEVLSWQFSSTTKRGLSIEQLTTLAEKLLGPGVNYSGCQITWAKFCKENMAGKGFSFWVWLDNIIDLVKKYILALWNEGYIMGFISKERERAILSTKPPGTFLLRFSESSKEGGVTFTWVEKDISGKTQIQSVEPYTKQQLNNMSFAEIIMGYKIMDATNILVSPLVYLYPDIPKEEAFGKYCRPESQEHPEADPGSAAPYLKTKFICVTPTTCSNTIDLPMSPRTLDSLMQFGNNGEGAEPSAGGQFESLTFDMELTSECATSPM

CC(=O)Nc1ccc(O)cc1 [AAP, acetaminophen]
Kd: 0.6 ± 0.4 µM

— publication PMC7920811 (Neoplasia (New York, N.Y.), 2021)
